The text below walks through data of patent publication US12082581B2, “Acrylate derivative, use and production intermediate compound of the same” (SUMITOMO CHEMICAL COMPANY, LIMITED, priority 2019, dated 2024).

The data set has as its system cabbage moth (Plutella xylostella). Kind of data set: Cabbage moth mortality test on sprayed cabbage seedling (Test method 23). In kind it is in vivo. As to conditions: 500 ppm, 20 mL/seedling sprayed on cabbage; 5 second instar larvae; after 5 days. The method, then:
The present compound is made to a formulation according to a similar method to that described in the Formulation Example 6, and thereto is added water containing 0.03 v/v % of a spreader to prepare a diluted solution containing a prescribed concentration of the test compound.
Cabbage (Brassicae oleracea) seedling (on the developmental stage of the second to third true leaf) is planted in a cup, and the diluted solutions are sprayed into the seedling at a ratio of 20 mL/seedling. Thereafter, the stem and leaf of the seedling is cut out and is then installed into the container that is covered with the filter paper. Five (5) cabbage moth (Plutella xylostella) at the second instar larval stages are released into the cup. After 5 days, the surviving insects are counted, and the mortality of insects is calculated by the following equation. Mortality (%)={1−the number of the surviving insects/5}×100

Consider `COC=C(Cc1cc(OCc2ccccc2)ccc1C)C(=O)OC` [compound 28], for which the mortality – broadly, the percentage killed – was determined as 100%.
